Read-outs that look alike come from different tables or passages of the source.
Key:
U937 = details: vs controls, p<0.05; cited from earlier work
HIV-1 [1] = test: HIV-1 DNA regression on years since seroconversion (Chun 1997); details: therapy including the drug; HIV-1 DNA per 10^6 resting CD4+ T-cells
HIV-1 [2] = test: Total HIV-1 LTR DNA by PCR (Pauza 1994); details: scale of 1 to 5 (1 is lowest)
HIV-1 [3] = system: HIV-1; parameters: key to Effect on HIV DNA: ↓↓: Two arrows indicates larger change; details: cited from earlier work
HIV-1 [4] = test: HIV-1 DNA load change over 80 weeks (Bruisten); format: in vivo, human; details: monotherapy; ddC calculated as ddC+AZT minus AZT
[5] = in vivo; cited from earlier work
TF [6] = details: cited from earlier work
human lymphocytes = details: 0.1 and 1 mM; cited from earlier work
leukocytes [7] = details: low concentrations, 20 hours; cited from earlier work
LDLR(−/−) mice = details: ≈5 mg/kg/day, 18 weeks; cited from earlier work
TF [8] = details: cited from earlier work; remark: listed apart in the source
c-Rel/p65 = details: cited from earlier work
TF [9] = details: 0.5 mg/kg/day, cited from earlier work
leukocytes [10] = details: 5-20 mg/kg/day, oral; cited from earlier work
[11] = combination treatment including the drug; cited from earlier work
CD18 = details: 10^−8 M for 10 min, vs unstimulated cells; cited from earlier work
Lp(a) = details: 2 g administered daily; cited from earlier work
NF-κB [12] = details: rabbit, in vivo; cited from earlier work
ACE [13] = target: T1, ACE (Homo sapiens, UniProt P12821); parameters: randomly assigned 9,297 high-risk patients; from tissue; host or cells: patients, in vivo; details: cited from earlier work
apoE(−/−) mice [14] = details: ramipril 1 mg/kg/day, 10 weeks; cited from earlier work
ACE [15] = target: T1, ACE; parameters: from tissue; host or cells: patients, in vivo; details: 5 or 10 mg/day, 4 years, vs placebo; cited from earlier work
ACE [16] = target: T1, ACE; parameters: randomly assigned 9,297 high-risk patients; from tissue; host or cells: patients, in vivo; details: cited from earlier work; remark: listed apart in the source
TF mRNA = details: obese mice, 10 to 20 weeks of age; cited from earlier work
rhesus monkeys = details: atherogenic diet; cited from earlier work
rabbits = details: atherogenic diet; cited from earlier work
U251.3 glioma cells = details: soluble, 100 μg/ml; fibronectin 10 μg/ml; 24 and 48 hours; cited from earlier work
neutrophils = details: cited from earlier work
apoE(−/−) mice [17] = details: 500 or 1,000 ng/min/kg, 1 month; cited from earlier work
TF [18] = details: in vitro treatment; cited from earlier work
NF-κB [19] = details: cited from earlier work
[20] = system: apolipoprotein E deficient mice; details: 0.1 ml of 10^−7M per mouse, intraperitoneally, once a day for 30 days; cited from earlier work

T1 sequence (P12821 30-1306): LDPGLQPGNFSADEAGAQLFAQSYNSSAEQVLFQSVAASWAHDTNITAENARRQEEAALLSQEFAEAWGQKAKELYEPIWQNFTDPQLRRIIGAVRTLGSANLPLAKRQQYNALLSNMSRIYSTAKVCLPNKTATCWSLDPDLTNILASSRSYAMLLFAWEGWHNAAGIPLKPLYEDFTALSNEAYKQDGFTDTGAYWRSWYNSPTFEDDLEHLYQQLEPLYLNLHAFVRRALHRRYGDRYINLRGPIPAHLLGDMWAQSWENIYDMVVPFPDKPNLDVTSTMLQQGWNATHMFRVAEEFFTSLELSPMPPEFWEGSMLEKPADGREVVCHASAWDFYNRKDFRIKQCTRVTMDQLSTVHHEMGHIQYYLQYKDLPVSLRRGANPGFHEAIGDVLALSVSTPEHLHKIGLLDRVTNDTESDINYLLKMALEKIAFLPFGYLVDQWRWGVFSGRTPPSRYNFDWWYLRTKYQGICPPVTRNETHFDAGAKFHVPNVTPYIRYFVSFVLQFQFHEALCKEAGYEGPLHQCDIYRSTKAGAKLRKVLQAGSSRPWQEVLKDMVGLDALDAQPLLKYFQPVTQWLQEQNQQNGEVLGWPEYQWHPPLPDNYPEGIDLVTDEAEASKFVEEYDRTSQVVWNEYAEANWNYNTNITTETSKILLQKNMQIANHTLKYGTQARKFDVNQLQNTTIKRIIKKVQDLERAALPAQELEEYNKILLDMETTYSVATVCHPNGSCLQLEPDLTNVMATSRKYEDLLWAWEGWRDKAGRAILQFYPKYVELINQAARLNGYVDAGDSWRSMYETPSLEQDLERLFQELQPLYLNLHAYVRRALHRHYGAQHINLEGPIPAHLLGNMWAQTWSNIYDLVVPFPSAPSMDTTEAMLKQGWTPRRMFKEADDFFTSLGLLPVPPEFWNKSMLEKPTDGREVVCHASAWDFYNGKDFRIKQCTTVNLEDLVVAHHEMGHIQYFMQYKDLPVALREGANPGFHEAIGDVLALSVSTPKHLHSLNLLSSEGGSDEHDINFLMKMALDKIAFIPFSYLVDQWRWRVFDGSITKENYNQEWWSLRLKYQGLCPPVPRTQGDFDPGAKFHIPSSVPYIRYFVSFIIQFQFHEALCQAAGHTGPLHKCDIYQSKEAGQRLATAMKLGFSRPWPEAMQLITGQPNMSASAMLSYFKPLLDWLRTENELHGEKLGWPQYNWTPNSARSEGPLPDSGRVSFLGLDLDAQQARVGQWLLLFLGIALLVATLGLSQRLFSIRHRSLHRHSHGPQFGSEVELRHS

CC(C)CCC[C@@H](C)[C@H]1CC[C@H]2[C@@H]3C(=O)C=C4C[C@@H](O)CC[C@]4(C)[C@H]3CC[C@]12C [7-ketocholesterol]
GSH content (U937): lower GSH content

Cc1cn([C@H]2C[C@H](N=[N+]=[N-])[C@@H](CO)O2)c(=O)[nH]c1=O [AZT, Zidovudine]
average difference between expected and observed viral DNA copies (HIV-1 [1]): +317 copies
average ranking of viral DNA load (HIV-1 [2]): 2.74
change in viral DNA (HIV-1 [3]; week 80): increase
mean log change from baseline in viral DNA over all time points (HIV-1 [4]): −0.05

CNCCC(Oc1ccc(C(F)(F)F)cc1)c1ccccc1 (stereo not drawn) [Fluoxetine]
effect on body weight [5]: ^IIFluoxetine produces a transient weight loss leading to gain in body weight in the long term.

CCCCNC(=O)NS(=O)(=O)c1ccc(C)cc1 [Tolbutamide]
atherosclerosis [5]: ^IIITolbutamide induced atherosclerosis.

CC(=O)Oc1ccccc1C(=O)O [aspirin, Acetylsalicylic Acid]
TF staining area in plaque (TF [6]; non-smokers): 2.0±2%
TF staining area in plaque (TF [6]; smokers): 4.4±4%
migration of human lymphocytes (human lymphocytes): stimulated migration of human lymphocytes
cell migration (leukocytes [7]): increased cell migration
decrease in NF-κB binding activity in the aortas (LDLR(−/−) mice): 34%
decrease in the positive area for macrophages (LDLR(−/−) mice): 57%
increase in the positive area for SMC (LDLR(−/−) mice): 77%
LPS-induced increase in TF mRNA and protein level (TF [8]): dose-dependently inhibited
LPS-induced translocation of c-Rel/p65 (c-Rel/p65): inhibited the LPS-induced translocation of c-Rel/p65
increase in TF concentration compared to non-smoker mice (Western blotting) (TF [9]): 1.3±0.17 fold
TF immunoreactive area (TF [9]; smoker mice, 8 weeks): 6.5±4.5%
increase of leukocyte migration relative to control values (leukocytes [10]): 20-70%

Nc1ccn([C@H]2CC[C@@H](CO)O2)c(=O)n1 [ddC, zalcitabine]
average ranking of viral DNA load (HIV-1 [2]): 2.71
association with fat redistribution (FR) [11]: significantly associated with the absence of FR
mean log change from baseline in viral DNA over all time points (HIV-1 [4]): −0.1546

OC[C@@H]1CC[C@H](n2cnc3c(O)ncnc32)O1 [ddI, 2′,3′-dideoxyinosine]
average difference between expected and observed viral DNA copies (HIV-1 [1]): −828 copies
average ranking of viral DNA load (HIV-1 [2]): 2.25
association with fat redistribution (FR) [11]: significantly associated with absence of FR
Effect on HIV DNA (HIV-1 [3]; in vivo): ↓↓

CSCC[C@H](NC=O)C(=O)N[C@@H](CC(C)C)C(=O)N[C@@H](Cc1ccccc1)C(=O)O [fMLP, N-formylmethionyl-leucyl-phenylalanine]
increase in CD18 surface membrane concentration (CD18): 4 fold

O=C(O)c1cccnc1 [niacin]
decrease of Lp(a) (Lp(a)): 27%

CCOC(=O)[C@H](CCc1ccccc1)N[C@@H](C)C(=O)N1Cc2ccccc2C[C@H]1C(=O)O [quinapril]
NF-κB activity in atherosclerotic vessels (NF-κB [12]): decreased the NF-κB activity

CCOC(=O)[C@H](CCc1ccccc1)N[C@@H](C)C(=O)N1[C@H](C(=O)O)C[C@@H]2CCC[C@@H]21 [ramipril]
progression slope of the mean maximum carotid intimal medial thickness (IMT) (ACE [13]; 10 mg/day, 4.5 years): 0.0137±0.0024 mm/year
decrease of progression of carotid intima media thickness (ACE [13]; at 4.5 years): 0.008 mm per year
lesion area (apoE(−/−) mice [14]): 6,679±978 μm^2
changes in thickness of the common carotid artery wall, or carotid plaque height (ACE [15]): no significant difference
rate of death from cardiovascular causes (ACE [16]; 10 mg/day, average follow up 4.5 years): 6.1%
rate of cardiac arrest (ACE [16]; 10 mg/day): 0.8%
rate of complications related to diabetes (ACE [16]; 10 mg/day): 6.4%
rate of death from any cause (ACE [16]; 10 mg/day): 10.4%
rate of heart failure (ACE [16]; 10 mg/day): 9.1%
rate of myocardial infarction (ACE [16]; 10 mg/day): 9.9%
rate of revascularization procedures (ACE [16]; 10 mg/day): 16.3%
rate of stroke (ACE [16]; 10 mg/day): 3.4%
RR of cardiac arrest (ACE [16]; vs placebo): 0.62
RR of complications related to diabetes (ACE [16]; vs placebo): 0.84
RR of death from any cause (ACE [16]; vs placebo): 0.84
RR of death from cardiovascular causes (ACE [16]; vs placebo): 0.74
RR of heart failure (ACE [16]; vs placebo): 0.77
RR of myocardial infarction (ACE [16]; vs placebo): 0.80
RR of revascularization procedures (ACE [16]; vs placebo): 0.85
RR of stroke (ACE [16]; vs placebo): 0.68

CCOC(=O)[C@H](CCc1ccccc1)N[C@H]1CS[C@H](c2cccs2)CN(CC(=O)O)C1=O [temocapril]
TF mRNA in cardiac tissue (TF mRNA): attenuated the increase in TF mRNA

CN1CCN(CCCN2c3ccccc3Sc3ccc(C(F)(F)F)cc32)CC1 [trifluoperazine]
rate of lesion formation (rhesus monkeys): decreased the rate of lesion formation
rate of lesion formation (rabbits): decreased the rate of lesion formation

TNC: a large ECM glycoprotein secreted by a variety of cells
migration distance (U251.3 glioma cells): significantly increased migration distance

angiotensin II (DRVYIHPF; Angiotensin-2; UniProt P01019 25-32, looked up)
velocity (neutrophils; concentration of 10^−11): 88 % of maximum velocity
concentration of peak velocity (neutrophils; neutrophils): 10^−10
development of AAA (apoE(−/−) mice [17]): promotes the development of AAA
rate of atherosclerotic lesion formation in the thoracic aorta (apoE(−/−) mice [17]): increases the rate of atherosclerotic lesion formation
TF antigen and mRNA (TF [18]): dose-depended increase in TF antigen and mRNA
NF-κB activation (NF-κB [19]): increased NF-κB activation
lesion area [20]: 5,000 μm^2
